Laboratory results taken from patent publication US11446287B2, “Compounds and methods for EP300 or CBP modulation and indications therefor” (Opna Immuno-Oncology SA, priority 2019, dated 2022).

The compounds below were run against T1, Recombinant human CBP containing the bromodomain (CBP-BD (1043-1159)) (Homo sapiens, UniProt Q92793) (assay: CBP Alphascreen binding assay). Conditions: read-out: CREBBP (CBP) IC50.
T1 construct: Recombinant human CBP bromodomain (CBP-BD (1043-1159)); made in house; host or cells: E. coli BL21-CodonPlus (DE3), modified pET vector
T1 sequence (Q92793 1081-1197): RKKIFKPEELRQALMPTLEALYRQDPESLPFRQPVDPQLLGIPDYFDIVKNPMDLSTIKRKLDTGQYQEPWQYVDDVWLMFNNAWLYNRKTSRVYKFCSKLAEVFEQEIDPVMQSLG
Procedure, shortened: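 Buffer: 50 mM HEPES pH 7.5, 50 mM NaCl, 0.01% BSA, 0.01% Triton X-100, 2 mM DTT. The signal was normalised to plate controls and fitted with a four-parameter curve to give IC50.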
Compound Cc1noc(C)c1-c1cnc2c(-c3ccccc3)cn(-c3c(Cl)cccc3C#N)c2c1 [P-0207, 3-chloro-2-(6-(3,5-dimethylisoxazol-4-yl)-3-phenyl-1H-pyrrolo[3,2-b]pyridin-1-yl)benzonitrile] has an IC50 of 1000 to 8000 nM. Compound CCOc1cc(C(=O)O)cc(OCC)c1-n1cc(C2=CCC(F)(F)CC2)c2ncc(-c3c(C)noc3C)cc21 [P-0208, 4-(3-(4,4-difluorocyclohex-1-en-1-yl)-6-(3,5-dimethylisoxazol-4-yl)-1H-pyrrolo[3,2-b]pyridin-1-yl)-3,5-diethoxybenzoic acid] has an IC50 of 0.1 to 1000 nM. For CCOc1cc(C(=O)O)cc(OCC)c1-n1cc(-c2ccc(F)c(Cl)c2)c2ncc(-c3c(C)noc3C)cc21 [P-0209, 4-(3-(3-chloro-4-fluorophenyl)-6-(3,5-dimethylisoxazol-4-yl)-1H-pyrrolo[3,2-b]pyridin-1-yl)-3,5-diethoxybenzoic acid], the IC50 was 0.1 to 1000 nM. With CCOc1cc(C(=O)O)cc(OCC)c1-n1cc(CC2CCC2)c2ncc(-c3c(COC)noc3C)cc21 [P-0210, 4-(3-(cyclobutylmethyl)-6-(3-(methoxymethyl)-5-methylisoxazol-4-yl)-1H-pyrrolo[3,2-b]pyridin-1-yl)-3,5-diethoxybenzoic acid] the IC50 was 0.1 to 1000 nM. Work on Cc1cnccc1-n1cc(-c2ccc(C(=O)O)cc2OC(F)(F)F)c2cc(-c3c(C)noc3C)cnc21 [P-0211, 4-(5-(3,5-dimethylisoxazol-4-yl)-1-(3-methylpyridin-4-yl)-1H-pyrrolo[2,3-b]pyridin-3-yl)-3-(trifluoromethoxy)benzoic acid] yielded an IC50 of 0.1 to 1000 nM. Work on Cc1noc(C)c1-c1cnc2c(c1)c(-c1ccc(C(=O)O)cc1OC(F)(F)F)cn2C1CCS(=O)(=O)CC1 [P-0212, 4-(5-(3,5-dimethylisoxazol-4-yl)-1-(1,1-dioxidotetrahydro-2H-thiopyran-4-yl)-1H-pyrrolo[2,3-b]pyridin-3-yl)-3-(trifluoromethoxy)benzoic acid] yielded an IC50 of 0.1 to 1000 nM. Work on Cc1noc(C)c1-c1cnc2c(c1)c(-c1ccc(C(=O)O)cc1OC(C)C)cn2C(C1CC1)C1CC1 [P-0213, 4-(1-(dicyclopropylmethyl)-5-(3,5-dimethylisoxazol-4-yl)-1H-pyrrolo[2,3-b]pyridin-3-yl)-3-isopropoxybenzoic acid] yielded an IC50 of 0.1 to 1000 nM. Cc1noc(C)c1-c1cnc2c(c1)c(-c1ccc(C(=O)O)cc1OCC(F)(F)F)cn2C(C1CC1)C1CC1 [P-0214, 4-(1-(dicyclopropylmethyl)-5-(3,5-dimethylisoxazol-4-yl)-1H-pyrrolo[2,3-b]pyridin-3-yl)-3-(2,2,2-trifluoroethoxy)benzoic acid] showed an IC50 of 0.1 to 1000 nM. Work on Cc1noc(C)c1-c1cnc2c(c1)c(-c1ccc(C(=O)O)cc1OC(F)(F)F)cn2-c1ncccc1C#N [P-0215, 4-(1-(3-cyanopyridin-2-yl)-5-(3,5-dimethylisoxazol-4-yl)-1H-pyrrolo[2,3-b]pyridin-3-yl)-3-(trifluoromethoxy)benzoic acid] yielded an IC50 of 0.1 to 1000 nM. Cc1noc(C)c1-c1cnc2c(c1)c(-c1ccc(C(=O)O)cc1OC(F)(F)F)cn2-c1ncccc1C#CC1CC1 [P-0216, 4-(1-(3-(cyclopropylethynyl)pyridin-2-yl)-5-(3,5-dimethylisoxazol-4-yl)-1H-pyrrolo[2,3-b]pyridin-3-yl)-3-(trifluoromethoxy)benzoic acid] gave an IC50 of 0.1 to 1000 nM. With CCOc1cc(C(=O)O)cc(OCC)c1-n1cc(-c2ccc(C#N)cc2F)c2ncc(-c3c(C)noc3C)cc21 [P-0217, 4-(3-(4-cyano-2-fluorophenyl)-6-(3,5-dimethylisoxazol-4-yl)-1H-pyrrolo[3,2-b]pyridin-1-yl)-3,5-diethoxybenzoic acid] the IC50 was 0.1 to 1000 nM. CCOc1cc(C(=O)O)cc(OCC)c1-n1cc(-c2ccc(C(=O)NC3CC3)cc2)c2ncc(-c3c(C)noc3C)cc21 [P-0218, 4-(3-(4-(cyclopropylcarbamoyl)phenyl)-6-(3,5-dimethylisoxazol-4-yl)-1H-pyrrolo[3,2-b]pyridin-1-yl)-3,5-diethoxybenzoic acid] showed an IC50 of 0.1 to 1000 nM. COC(=O)c1cc(OC)c(-n2cc(-c3ccccc3)c3ncc(-c4c(C)noc4C)cc32)c(OC)c1 [P-0219, methyl 4-(6-(3,5-dimethylisoxazol-4-yl)-3-phenyl-1H-pyrrolo[3,2-b]pyridin-1-yl)-3,5-dimethoxybenzoate] was tested, and the IC50 was 0.1 to 1000 nM. With COc1cc(C(=O)O)cc(OC)c1-n1cc(-c2ccccc2)c2ncc(-c3c(C)noc3C)cc21 [P-0220, 4-(6-(3,5-dimethylisoxazol-4-yl)-3-phenyl-1H-pyrrolo[3,2-b]pyridin-1-yl)-3,5-dimethoxybenzoic acid] the IC50 was 0.1 to 1000 nM. For COc1cccc(OC)c1-n1cc(-c2ccccc2)c2ncc(-c3c(C)noc3C)cc21 [P-0221, 4-(1-(2,6-dimethoxyphenyl)-3-phenyl-1H-pyrrolo[3,2-b]pyridin-6-yl)-3,5-dimethylisoxazole], the IC50 was 1000 to 8000 nM. CCOc1cc(C(=O)O)cc(OCC)c1-n1cc(-c2ccnc(F)c2)c2ncc(-c3c(C)noc3C)cc21 [P-0222, 4-(6-(3,5-dimethylisoxazol-4-yl)-3-(2-fluoropyridin-4-yl)-1H-pyrrolo[3,2-b]pyridin-1-yl)-3,5-diethoxybenzoic acid] was tested, and the IC50 was 0.1 to 1000 nM. Cc1noc(C)c1-c1cnc2c(c1)c(-c1ccc(C(=O)O)cc1OC(F)(F)F)cn2-c1ccccc1F [P-0223, 4-(5-(3,5-dimethylisoxazol-4-yl)-1-(2-fluorophenyl)-1H-pyrrolo[2,3-b]pyridin-3-yl)-3-(trifluoromethoxy)benzoic acid] was tested, and the IC50 was 0.1 to 1000 nM. CCOc1cccc(Cl)c1-n1cc(-c2ccccc2)c2ncc(-c3c(C)noc3C)cc21 [P-0224, 4-(1-(2-chloro-6-ethoxyphenyl)-3-phenyl-1H-pyrrolo[3,2-b]pyridin-6-yl)-3,5-dimethylisoxazole] was tested, and the IC50 was 1000 to 8000 nM. For CCOc1ccc(C(=O)O)cc1-n1cc(-c2ccccc2)c2ncc(-c3c(C)noc3C)cc21 [P-0225, 3-(6-(3,5-dimethylisoxazol-4-yl)-3-phenyl-1H-pyrrolo[3,2-b]pyridin-1-yl)-4-ethoxybenzoic acid], the IC50 was 0.1 to 1000 nM. With Cc1noc(C)c1-c1cnc2c(c1)c(-c1ccc(C(=O)O)cc1OC(F)(F)F)cn2C1CCOCC1 [P-0226, 4-(5-(3,5-dimethylisoxazol-4-yl)-1-(tetrahydro-2H-pyran-4-yl)-1H-pyrrolo[2,3-b]pyridin-3-yl)-3-(trifluoromethoxy)benzoic acid] the IC50 was 0.1 to 1000 nM. Cc1noc(C)c1-c1cnc2c(c1)c(-c1ccc(C(=O)O)cc1OC(F)(F)F)cn2C1CCC(F)(F)CC1 [P-0227, 4-(1-(4,4-difluorocyclohexyl)-5-(3,5-dimethylisoxazol-4-yl)-1H-pyrrolo[2,3-b]pyridin-3-yl)-3-(trifluoromethoxy)benzoic acid] showed an IC50 of 0.1 to 1000 nM. Cc1noc(C)c1-c1cnc2c(c1)c(-c1ccc(C(=O)O)cc1OC(F)(F)F)c(C)n2-c1ccccn1 [P-0228, 4-(5-(3,5-dimethylisoxazol-4-yl)-2-methyl-1-(pyridin-2-yl)-1H-pyrrolo[2,3-b]pyridin-3-yl)-3-(trifluoromethoxy)benzoic acid] gave an IC50 of 0.1 to 1000 nM. Cc1noc(C)c1-c1cnc2c(-c3ccc(F)cc3F)cn(-c3ccc(C(=O)O)cc3OC(F)(F)F)c2c1 [P-0229, 4-(3-(2,4-difluorophenyl)-6-(3,5-dimethylisoxazol-4-yl)-1H-pyrrolo[3,2-b]pyridin-1-yl)-3-(trifluoromethoxy)benzoic acid] gave an IC50 of 0.1 to 1000 nM. In the case of Cc1noc(C)c1-c1cnc2c(c1)c(-c1c(F)cc(C(=O)O)cc1OC(F)(F)F)cn2C(C1CC1)C1CC1 [P-0230, 4-(1-(dicyclopropylmethyl)-5-(3,5-dimethylisoxazol-4-yl)-1H-pyrrolo[2,3-b]pyridin-3-yl)-3-fluoro-5-(trifluoromethoxy)benzoic acid], the IC50 is reported as 0.1 to 1000 nM. Cc1ccccc1-n1cc(-c2ccc(C(=O)O)cc2OC(F)(F)F)c2cc(-c3c(C)noc3C)cnc21 [P-0231, 4-(5-(3,5-dimethylisoxazol-4-yl)-1-(o-tolyl)-1H-pyrrolo[2,3-b]pyridin-3-yl)-3-(trifluoromethoxy)benzoic acid] gave an IC50 of 0.1 to 1000 nM. For Cc1noc(C)c1-c1cnc2c(c1)c(-c1ccc(C(=O)O)cc1OC(F)(F)F)cn2-c1ccc(F)cc1F [P-0232, 4-(1-(2,4-difluorophenyl)-5-(3,5-dimethylisoxazol-4-yl)-1H-pyrrolo[2,3-b]pyridin-3-yl)-3-(trifluoromethoxy)benzoic acid], the IC50 was 0.1 to 1000 nM. Cc1noc(C)c1-c1cnc2c(c1)c(-c1ccc(C(=O)O)cc1OC(F)(F)F)cn2-c1cc(F)ccc1F [P-0233, 4-(1-(2,5-difluorophenyl)-5-(3,5-dimethylisoxazol-4-yl)-1H-pyrrolo[2,3-b]pyridin-3-yl)-3-(trifluoromethoxy)benzoic acid] gave an IC50 of 0.1 to 1000 nM. For Cc1noc(C)c1-c1cnc2c(-c3ccc(C(=O)O)cc3F)c(C(F)(F)F)n([C@@H](C)c3ccccn3)c2c1 [P-0234, (S)-4-(6-(3,5-dimethylisoxazol-4-yl)-1-(1-(pyridin-2-yl)ethyl)-2-(trifluoromethyl)-1H-pyrrolo[3,2-b]pyridin-3-yl)-3-fluorobenzoic acid], the IC50 was 0.1 to 1000 nM. Work on Cc1cc(C(=O)O)ccc1-c1c(C(F)(F)F)n([C@@H](C)c2ccccn2)c2cc(-c3c(C)noc3C)cnc12 [P-0235, (S)-4-(6-(3,5-dimethylisoxazol-4-yl)-1-(1-(pyridin-2-yl)ethyl)-2-(trifluoromethyl)-1H-pyrrolo[3,2-b]pyridin-3-yl)-3-methylbenzoic acid] yielded an IC50 of 0.1 to 1000 nM. With COc1cc(C(=O)O)ccc1-c1c(C(F)(F)F)n([C@@H](C)c2ccccn2)c2cc(-c3c(C)noc3C)cnc12 [P-0236, (S)-4-(6-(3,5-dimethylisoxazol-4-yl)-1-(1-(pyridin-2-yl)ethyl)-2-(trifluoromethyl)-1H-pyrrolo[3,2-b]pyridin-3-yl)-3-methoxybenzoic acid] the IC50 was 0.1 to 1000 nM. Cc1noc(C)c1-c1cnc2c(-c3cn(C)nc3C3CC3)c(C(F)(F)F)n([C@@H](C)c3ccccn3)c2c1 [P-0237, (S)-4-(3-(3-cyclopropyl-1-methyl-1H-pyrazol-4-yl)-1-(1-(pyridin-2-yl)ethyl)-2-(trifluoromethyl)-1H-pyrrolo[3,2-b]pyridin-6-yl)-3,5-dimethylisoxazole] gave an IC50 of 0.1 to 1000 nM.
